Series [1] concerns K. pneumoniae (ATCC BAA-1705). The series can be described thus: microbe, parasite or virus in culture. Format: cell-based, Klebsiella pneumoniae. Particulars: for MBC: ATCC BAA-1705, 18 h, read-out: MBC; for MIC: ATCC BAA-1705, 24 h, read-out: MIC. The protocol: (§1) The antimicrobial activities of peptides were evaluated against the Gram-positive bacteria, S. aureus (ATCC 6538), methicillin-resistant Staphylococcus aureus (MRSA) (NCTC 12493), Enterococcus faecalis (E. faecalis) (NCTC 12697); the Gram-negative bacteria, E. coli (ATCC CRM 8739), Klebsiella pneumoniae (K. pneumoniae) (ATCC 43816), Pseudomonas aeruginosa (P. aeruginosa) (ATCC CRM 9027); and the yeast, Candida albicans (C. albicans) (ATCC CRM 10231). Clinical isolates of MRSA (B042 V2E1 A), E. coli (ATCC BAA-2340), K. pneumoniae (ATCC BAA-1705), and P. aeruginosa (B004 V2S2 B) were also used to determine their antimicrobial activities. The suspension of microorganisms in the logarithmic growth phase with a specific final density (Gram-negative and Gram-positive bacteria: 5 × 10^5 CFU/mL; yeast: 1 × 10^6 CFU/mL) was incubated with different peptide concentrations from 1 µM to 512 µM at 37 °C for 24 h. PBS was used as the negative control, and norfloxacin and amphotericin B were selected as the positive control for bacteria and yeast, respectively. Since the Norfloxacin had weak activities against P. aeruginosa (B004 V2S2 B) and K. pneumoniae (ATCC BAA 1705), gentamicin was used as the positive control for these two bacterial strains. The absorbance of each well was obtained using a microplate reader (EL808, Biolise BioTek, Winooski, VT, USA) set at 550 nm wavelength. The MIC value was the lowest concentration of a peptide that inhibits visible bacterial growth. Once the MIC values were determined, an aliquot from the bacterial culture exposed to the peptide at or above its MIC value was inoculated on a Mueller Hinton agar (MHA) and was incubated at 37 for 18 h. The MBC value was the lowest concentration of a peptide that kills 99.9% of bacteria.

In series [2] the test system is K. pneumoniae (ATCC 43816). The series is described as follows: microbe, parasite or virus in culture. As to conditions: for MBC: ATCC 43816, 18 h, read-out: MBC; for MIC: ATCC 43816, 24 h, read-out: MIC. The series is classed as cell-based, Klebsiella pneumoniae. The protocol: as §1
A further series relates to MRSA (NCTC 12493). The series is classed as cell-based, methicillin-resistant Staphylococcus aureus. Particulars: NCTC 12493, 24 h. As for the experimental part:
as §1
According to the procedures in a previous article, the analysis of the sensitivity of the peptides was determined by measuring MIC values in the presence of different types of salts and 10% fetal bovine serum. MRSA (NCTC 12493) and K. pneumoniae (ATCC 43816) were selected as the subjects of these assays. Various salts at different concentrations, including 150 mM NaCl, 4.5 mM KCl, 6 μM NH4Cl, 1 mM MgCl2, […], […], and 10% serum (Gibco, Auckland, New Zealand), were added to the MHB medium for the examination of the MIC values which were determined as described in Section 2.7.

The test system of another series is NCI-H838 (H838) cells. Format: cell-based. As to conditions: 24 h. As for the experimental part: (§2) The cytotoxicity of the peptides against the human epidermal keratinocyte line, HaCaT, was tested using the MTT cell viability assay as described in a previous study. The 100 µL of the cell suspension in a complete DMEM medium with a density of 10,000 cells/mL was seeded in a 96-well plate and incubated overnight at 37 °C in a humidified 5% CO2 atmosphere. After 4 h of starvation in a serum-free medium, 100 μL of serial dilutions (from 10^−9 M to 10^−4 M) of temporin-PKE and its analogues was added to each well, and the plate was incubated for 24 h. The serum-free medium and 0.1% Triton X-100 were used as the negative and positive control, respectively. Then, MTT solution, at a volume of 10 μL, was added to each well, and the plate was incubated for 2 h. After this, the medium was replaced by 100 μL of DMSO, and plates were put in the shaking incubator for 15 min. The absorbance of each well was measured using a microplate reader (EL808, Biolise BioTek, Winooski, VT, USA) set to a wavelength of 570 nm. The equation used to calculate the viability of the cells is shown below: Cell viability (%)=A−Ab/An−Ab×100% where A represents the absorbance of each treatment group, Ab represents the average absorbance of the wells in the blank control group (cells not exposed to the test peptide and MTT), and An represents the average absorbance of the wells in the negative control group (cells not exposed to the test peptide).
(§3) The anti-proliferative activities of peptides against HCT-116, NCI-H838 (H838), U251MG, PC-3, and NCI-H157 cell lines were determined by MTT cell viability assay, and the details were described in Section 2.9.

The test system of a further series is U251MG cells. The series is classed as cell-based. Particulars: 24 h. The protocol: as §2, §3
The subject of another series is HCT-116 cells. Format: cell-based. As to conditions: 24 h. As for the experimental part:
as §2, §3

The next series deals with PC-3 cells. Format: cell-based. Particulars: 24 h. As for the experimental part:
as §2, §3

Another series relates to NCI-H157 cells. Format: cell-based. As to conditions: 24 h. As for the experimental part: as §2, §3
Another series relates to horse red blood cells. Format: cell-based. As for the experimental part: As a previous study described in detail, the haemolysis activity assays of peptides were conducted on defibrinated horse blood (TCS Biosciences Ltd., Buckingham, UK) with an erythrocyte suspension concentration of 2% (v/v). The 120 μL of peptide solution in a gradient concentration ranging from 1µM to 512 µM was mixed with the same volume of 2% horse red blood cell suspension, and the complex was incubated at 37 °C for 2 h. PBS and 0.1% Triton X-100 were chosen as the negative and positive control, respectively. After centrifugation at 900× g for 5 min, the absorbance of the supernatant was analysed using a microplate reader (EL808, Biolise BioTek, Winooski, VT, USA) set to a wavelength of 570 nm. The equation to calculate the haemolysis of the peptides is shown below: Haemolysis (%)=A−An/Ap−An×100% where A represents the absorbance of each treatment group, An represents the average absorbance of the negative control group, and Ap represents the average absorbance of the positive control group.

Like-named read-outs stand apart in the source and are kept apart here. Non-standard residues stand in square brackets, D forms with d. Residues, ends and D or L forms follow the SMILES beside them. No end group written: not given here.

As usually defined, the IC50 is the point on the concentration scale where inhibition reaches its midpoint. Read a high IC50 as weaker potency. What is called HC50 is the concentration giving 50% haemolysis. As to FLPLIIGALSSLLPKIF-NH2 [Temporin-PKE], in [1], the MBC is reported as above 512 µM and the MIC is recorded as above 512 µM. Besides, in series [2], the MBC is on record as above 512 µM and the MIC was above 512 µM. In the series on MRSA (NCTC 12493), the “MIC against MRSA in the presence of 4 µM FeCl3” value came out at 8 µM, the “MIC against MRSA in the presence of 6 µM NH4Cl” value was 8 µM, the “MIC against MRSA in the presence of 8 µM ZnCl2” value is 32 µM and the “MIC against MRSA in the presence of 1 mM MgCl2” value was 8 µM. In the series on MRSA (NCTC 12493), the “MIC against MRSA in the presence of 2 mM CaCl2” value came out at 8 µM, the “MIC against MRSA in the presence of 4.5 mM KCl” value was 8 µM, the “MIC against MRSA in the presence of 150 mM NaCl” value amounted to 8 µM and the “MIC against MRSA in the presence of 10% FBS” value was 16 µM. Besides, the “MIC against MRSA, Negative” value against MRSA (NCTC 12493) is 2 µM. The compound also had a 50% inhibitory concentration (IC50) with NCI-H838 (H838) cells of 16.4 µM. Also, inhibition in the series on U251MG cells was half-maximal at 23.2 µM (IC50). In the series with HCT-116 cells, this compound gave an IC50 of 21.3 µM. For the same compound, the midpoint of inhibition in the series with PC-3 cells, the IC50, lay at 7.29 µM. Also, the IC50 with NCI-H157 cells was determined as 17.4 µM. Also, the HC50 with horse red blood cells came out at 6.58 µM. The HC50 with horse red blood cells (red cells of horse, 2 h) was 6.58 µM.
Turning to `CC[C@@H](C)[C@@H](NC(=O)[C@H](CCCCN)NC(=O)[C@@H]1CCCN1C(=O)[C@H](CC(C)C)NC(=O)[C@H](CC(C)C)NC(=O)[C@H](CO)NC(=O)[C@H](CO)NC(=O)[C@H](CC(C)C)NC(=O)[C@H](C)NC(=O)CNC(=O)[C@@H](NC(=O)[C@@H](NC(=O)[C@H](CC(C)C)NC(=O)[C@@H]1CCCN1C(=O)[C@H](CC(C)C)NC(=O)[C@@H](N)Cc1ccccc1)[C@@H](C)CC)[C@@H](C)CC)C(=O)N[C@@H](Cc1ccccc1)C(N)=O` [Temporin-PKE-i] (H-FLPLIIGALSSLLPK[dI]F-NH2), the MBC in series [1] and in series [2] was above 512 µM in each case. Also, the MIC in [1] and in [2] was above 512 µM each time. The “MIC against MRSA in the presence of 4 µM FeCl3” value in the series with MRSA (NCTC 12493) came to 2 µM. Further, the “MIC against MRSA in the presence of 8 µM ZnCl2” value with MRSA (NCTC 12493) was found to be 16 µM. For the same compound, the “MIC against MRSA in the presence of 2 mM CaCl2” value in the series with MRSA (NCTC 12493) came out at 4 µM. In addition, the “MIC against MRSA in the presence of 150 mM NaCl” value in the series on MRSA (NCTC 12493) was determined as 4 µM. Besides, in the series on MRSA (NCTC 12493), the “MIC against MRSA in the presence of 10% FBS” value was found to be 8 µM. Moreover, the IC50 in the series with NCI-H838 (H838) cells came out at 5.28 µM; in the series on U251MG cells it was 4.46 µM; with HCT-116 cells, 3.07 µM; in the series on PC-3 cells, 3.35 µM; with NCI-H157 cells, 2.94 µM. Further, the concentration for 50% haemolysis (HC50) in the series on horse red blood cells (red cells of horse, 2 h) was 68.37 µM.

These data come from paper PMC9221509, “Discovery of a Novel Antimicrobial Peptide, Temporin-PKE, from the Skin Secretion of Pelophylax kl. esculentus, and Evaluation of Its Structure-Activity Relationships” (Biomolecules, 2022).
